Values after ≈ are worked out from the molar mass of the structure shown. Values joined by “and” are separate entries in the source; they are usually repeats but may differ in a detail not shown here. Equal values may be shown once. Read-outs that look alike come from different tables or passages of the source.
Experiments:
[1] = some solvents (Jacobsen et al, 2016a); cited from earlier work
[2] = Solubility of 5-HTP; assay type: physicochemical; settings: water, read-out: aqueous solubility
Description: The aqueous solubility of 5-HTP is approximately 10 mg/ml. However, 5-HTP has been reported to be soluble to up to about 100 mg/ml in some solvents (Jacobsen et al, 2016a). In some embodiments, the concentration of 5-HTP in the infusion solutions (i.e., the infusate fluids) is between about 1 mg/ml and about 10 mg/ml. In some embodiments, the concentration is between about 0.1 mg/ml and about 1 mg/ml. In some embodiments, the concentration is between about 10 mg/ml and about 100 mg/ml.

[3] = Plasma 5-HTP pharmacokinetics of 24 h continuous IV 5-HTP infusion, Phase 1 study; assay type: in vivo, human
Description: Study Design. A Phase 1, randomized, double-blind, placebo-controlled, single ascending dose study was performed to evaluate the safety, tolerability and pharmacokinetics (PK) of 5-HTP solution for IV infusion when administered to healthy adults taking a selective serotonin reuptake inhibitor (SSRI), escitalopram, for 3 weeks. Study duration was 37±3 days. The total individual subject participation time was no more than 66 days including screening, dosing, and follow-up phases. The IV infusion duration was 24 h, dosing with 5-HTP solution for IV infusion (see Example 3, above) or placebo (0.9% saline).
Subjects. A total of 39 healthy male and female subjects were randomized across 5 cohorts, each with 8 subjects (6 active:2 placebo) per cohort except for Cohort 5 (5 active:2 placebo). For each cohort, first 2 sentinel subjects received IV 5-HTP (N=1) or placebo (N=1) prior to dosing of the remaining 5 or 6 subjects.
IV infusion. 5-HTP solution for IV infusion or placebo was administered IV at a constant rate or ramped rate of infusion over 24 hr.
Constant rate infusion. 5-HTP solution for IV infusion was administered at constant infusion rates of 1 mg/kg/24 hr in Cohort 1 and 3 mg/kg/24 hr in Cohort 2. The infusion rate was 41.67 ml/h.
Ramp rate infusion. To gradually elevate 5-HTP plasma levels, 5-HTP solution for IV infusion was administered at a ramp rate of infusion for Cohorts 3, Cohort 4, and Cohort 5, at average 5-HTP infusion rates of 3 mg/kg/24 hr, 2 mg/kg/24 hr and 1 mg/kg/24 hr, respectively. The infusion volume rates were 13.89 ml/hr at T=0-4 hr; 27.78 ml/hr at T=4-8 hr; 41.67 ml/hr at T=8-12 hr; and 55.55 ml/hr at T=12-24 hr.
Bioanalysis. Plasma samples for 5-HTP analysis were collected and stored at −80° C. Plasma samples for escitalopram analysis were collected and stored at −80° C. Plasma 5-HTP levels and plasma escitalopram levels were measured using standard liquid chromatography with tandem mass spectrometry (LC-MS-MS) methods. For 5-HTP analysis, plasma samples were collected at T=0, 1, 2, 3, 4, 5, 6, 8, 10, 12, 14, 22, 24, 26, 28, 30, 32, 36, and 48 hr. For escitalopram analysis, plasma samples were collected on Day 7, Day 21 (pre-infusion), Day 22 (end of infusion), and Day 23 (24 hr after end of infusion). Plasma escitalopram levels were averaged across days 21-23, during the time-period when subjects were admitted to the clinic and received 5-HTP solution for IV infusion or placebo.
Statistical analysis. Subjects receiving placebo across the 5 cohorts (N=2 per cohort) were pooled. Descriptive statistics were calculated for each quantitative variable within each treatment group and placebo (n, mean, standard deviation, median, minimum, maximum).
PK analysis of plasma 5-HTP. The PK population included subjects who received 5-HTP solution for IV infusion and completed the 24 h infusion. PK parameters were computed for each Cohort/dose/infusion paradigm. Placebo data from all cohorts were pooled.

[4] = both sexes, human, plasma, intravenous, 1 mg/kg, individual subjects, Constant rate 1 mg/kg/24 hr
[5] = both sexes, human, plasma, intravenous, 1 mg/kg, individual subjects, Ramp rate 1 mg/kg/24 hr
[6] = both sexes, human, plasma, intravenous, 2 mg/kg, individual subjects, Ramp rate 2 mg/kg/24 hr
[7] = both sexes, human, plasma, intravenous, 3 mg/kg, individual subjects, Constant rate 3 mg/kg/24 hr
[8] = both sexes, human, plasma, intravenous, 3 mg/kg, individual subjects, Ramp rate 3 mg/kg/24 hr
[9] = both sexes, human, plasma, iv, 1 mg/kg, Cohort 1, constant rate 1 mg/kg/24 hr IV, healthy adults on escitalopram, mean, N=6
[10] = both sexes, human, plasma, iv, 1 mg/kg, Cohort 5, ramp rate 1 mg/kg/24 hr IV, healthy adults on escitalopram, mean, N=5
[11] = both sexes, human, plasma, iv, 2 mg/kg, Cohort 4, ramp rate 2 mg/kg/24 hr IV, healthy adults on escitalopram, mean, N=6
[12] = both sexes, human, plasma, iv, 3 mg/kg, Cohort 2, constant rate 3 mg/kg/24 hr IV, healthy adults on escitalopram, mean, N=4 completers
[13] = both sexes, human, plasma, iv, 3 mg/kg, Cohort 3, ramp rate 3 mg/kg/24 hr IV, healthy adults on escitalopram, mean, N=6
[14] = individual subjects, Constant rate 1 mg/kg/24 hr
[15] = individual subjects, Constant rate 3 mg/kg/24 hr
[16] = individual subjects, Ramp rate 1 mg/kg/24 hr
[17] = individual subjects, Ramp rate 2 mg/kg/24 hr
[18] = individual subjects, Ramp rate 3 mg/kg/24 hr

Which results are given for `N[C@@H](Cc1c[nH]c2ccc(O)cc12)C(=O)O` [5-HTP, 5-hydroxytryptophan]?
soluble in some solvents [1]: up to 100 mg/ml; solubility [2]: ~10000 µg/mL (≈ 45.4 mM); differences in CAve, AUCInf or AUCLast between constant rate and ramp rate infusion ([3]; 1 mg/kg/24 hr or 3 mg/kg/24 hr average infusion rates, p>0.05, unpaired t-test): no significant differences; CAve (0-24 h) ([3]; Cohort 1, constant rate 1 mg/kg/24 hr IV, healthy adults on escitalopram, mean, N=6): 94 ng/mL; initial 5-HTP plasma levels, T=1 h ([3]; Cohort 2, constant 3 mg/kg/24 hr, the 2 discontinued subjects): 304 ng/mL; CAve (0-24 h) ([3]; Cohort 2, constant rate 3 mg/kg/24 hr IV, healthy adults on escitalopram, mean, N=4 completers): 268 ng/mL; CAve (0-24 h) ([3]; Cohort 4, ramp rate 2 mg/kg/24 hr IV, healthy adults on escitalopram, mean, N=6): 160 ng/mL; CAve (0-24 h) ([3]; Cohort 5, ramp rate 1 mg/kg/24 hr IV, healthy adults on escitalopram, mean, N=5): 82 ng/mL; AUC(0-inf) [3, 4]: 2920 ng·h/mL; AUC(0-t) [3, 4]: 2830 ng·h/mL; CMax ([3]; both sexes, human, plasma, intravenous, 1 mg/kg, individual subjects, Constant rate 1 mg/kg/24 hr, read-out: CMax): 118 ng/mL; AUC(0-inf) [3, 5]: 2810 ng·h/mL; AUC(0-t) [3, 5]: 2770 ng·h/mL; CMax ([3]; both sexes, human, plasma, intravenous, 1 mg/kg, individual subjects, Ramp rate 1 mg/kg/24 hr, read-out: CMax): 179 ng/mL; AUC(0-inf) [3, 6]: 6650 ng·h/mL; AUC(0-t) [3, 6]: 6540 ng·h/mL; CMax ([3]; both sexes, human, plasma, intravenous, 2 mg/kg, individual subjects, Ramp rate 2 mg/kg/24 hr, read-out: CMax): 407 ng/mL; AUC(0-inf) [3, 7]: 8000 ng·h/mL; AUC(0-t) [3, 7]: 7960 ng·h/mL; CMax ([3]; both sexes, human, plasma, intravenous, 3 mg/kg, individual subjects, Constant rate 3 mg/kg/24 hr, read-out: CMax): 397 ng/mL; AUC(0-inf) [3, 8]: 11200 ng·h/mL; AUC(0-t) [3, 8]: 11100 ng·h/mL; CMax ([3]; both sexes, human, plasma, intravenous, 3 mg/kg, individual subjects, Ramp rate 3 mg/kg/24 hr, read-out: CMax): 613 ng/mL; AUC(0-inf) [3, 9]: 2970 ng·h/mL; AUC(0-t) [3, 9]: 2910 ng·h/mL; half-life [3, 9]: 3.71 h; CMax ([3]; both sexes, human, plasma, iv, 1 mg/kg, Cohort 1, constant rate 1 mg/kg/24 hr IV, healthy adults on escitalopram, mean, N=6, read-out: CMax): 141 ng/mL; AUC(0-inf) [3, 10]: 3290 ng·h/mL; AUC(0-t) [3, 10]: 3240 ng·h/mL; half-life [3, 10]: 4.52 h; CMax ([3]; both sexes, human, plasma, iv, 1 mg/kg, Cohort 5, ramp rate 1 mg/kg/24 hr IV, healthy adults on escitalopram, mean, N=5, read-out: CMax): 209 ng/mL; AUC(0-inf) [3, 11]: 6440 ng·h/mL; AUC(0-t) [3, 11]: 6330 ng·h/mL; half-life [3, 11]: 4.4 h; CMax ([3]; both sexes, human, plasma, iv, 2 mg/kg, Cohort 4, ramp rate 2 mg/kg/24 hr IV, healthy adults on escitalopram, mean, N=6, read-out: CMax): 395 ng/mL; AUC(0-inf) [3, 12]: 8850 ng·h/mL; AUC(0-t) [3, 12]: 8800 ng·h/mL; half-life [3, 12]: 4.84 h; CMax ([3]; both sexes, human, plasma, iv, 3 mg/kg, Cohort 2, constant rate 3 mg/kg/24 hr IV, healthy adults on escitalopram, mean, N=4 completers, read-out: CMax): 427 ng/mL; AUC(0-inf) [3, 13]: 11000 ng·h/mL; AUC(0-t) [3, 13]: 10900 ng·h/mL; half-life [3, 13]: 5.1 h; CMax ([3]; both sexes, human, plasma, iv, 3 mg/kg, Cohort 3, ramp rate 3 mg/kg/24 hr IV, healthy adults on escitalopram, mean, N=6, read-out: CMax): ~592 ng/mL; time to average steady state plasma levels after start of infusion ([3]; constant 5-HTP infusion rates 1 mg/kg/24 hr and 3 mg/kg/24 hr): approximately 4 h; concentration at 1 h ([3]; human, plasma, intravenous, 3 mg/kg/24 hr, Cohort 2, constant 3 mg/kg/24 hr, the 2 discontinued subjects, read-out: initial 5-HTP plasma levels, T=1 h): 248 ng/mL; AUCInf [3, 14]: 2551.36 ng·h/mL and 2930.09 ng·h/mL and 3832.68 ng·h/mL and 2234.41 ng·h/mL and 3351.07 ng·h/mL; AUCLast [3, 14]: 2530.16 ng·h/mL and 2885.80 ng·h/mL and 3762.18 ng·h/mL and 2185.63 ng·h/mL and 3291.36 ng·h/mL; CMax [3, 14]: 112 ng/mL and 143 ng/mL and 189 ng/mL and 114 ng/mL and 169 ng/mL; AUCInf [3, 15]: 9781.13 ng·h/mL and 7039.23 ng·h/mL and 10597.49 ng·h/mL; AUCLast [3, 15]: 9690.71 ng·h/mL and 6999.32 ng·h/mL and 10537.75 ng·h/mL; CMax [3, 15]: 480 ng/mL and 320 ng/mL and 512 ng/mL; AUCInf [3, 16]: 4399.83 ng·h/mL and 3862.84 ng·h/mL and 2807.47 ng·h/mL and 2572.27 ng·h/mL; AUCLast [3, 16]: 4345.10 ng·h/mL and 3799.02 ng·h/mL and 2767.78 ng·h/mL and 2505.93 ng·h/mL; CMax [3, 16]: 266 ng/mL and 247 ng/mL and 192 ng/mL and 160 ng/mL; AUCInf [3, 17]: 6254.18 ng·h/mL and 6207.11 ng·h/mL and 6316.80 ng·h/mL and 6043.68 ng·h/mL and 7134.20 ng·h/mL; AUCLast [3, 17]: 6191.76 ng·h/mL and 6095.21 ng·h/mL and 6245.16 ng·h/mL and 5955.75 ng·h/mL and 6968.01 ng·h/mL; CMax [3, 17]: 373 ng/mL and 352 ng/mL and 385 ng/mL and 414 ng/mL and 437 ng/mL; AUCInf [3, 18]: 11393.96 ng·h/mL and 13786.66 ng·h/mL and 10786.90 ng·h/mL and 8427.71 ng·h/mL and 10152.61 ng·h/mL; AUCLast [3, 18]: 11310.89 ng·h/mL and 13698.51 ng·h/mL and 10738.77 ng·h/mL and 8350.62 ng·h/mL and 10098.28 ng·h/mL; CMax [3, 18]: 660 ng/mL and 679 ng/mL and 644 ng/mL and 454 ng/mL and 502 ng/mL; time to average steady state plasma levels ([3]; variable (ramp) infusion, average rate 1-, 2-, and 3 mg/kg/24 hr): 14 to 24 h

— patent publication US11779567B2, “Method for optimizing 5-hydroxytryptamine function in the brain for therapeutic purposes” (Evecxia Therapeutics, Inc., priority 2021, dated 2023)
